Experimental data reported in PMC8287944, “5-Fluorouracil blocks quorum-sensing of biofilm-embedded methicillin-resistant Staphylococcus aureus in mice” (Nucleic Acids Research, 2021).
Where two headings read alike, the source gives them in different places. Bridge positions count the residues as written; N and C are the ends. Square brackets hold non-standard residues; d marks the D form. Peptide text beside a SMILES is read from it. I, II: the chains in the order shown. * marks the point of attachment. Quinoxaline2carbonyl = O=C(c1cnc2ccccc2n1)*; NMeV = CN[CH](C(=O)O)C(C)C; NMeC = CN[CH](CS)C(=O)O

How the values were obtained:
[1] = test system: AI-2 production by HEK-293AI2 cells expressing MTAN and LuxS; test: HEK-293AI2 / V. harveyi (MM32) AI-2 detection platform (AI-2 production by engineered human cells); format: cell-based, human cells; MTAN and LuxS derived from E. coli; details: for IC50: HEK-293AI2 cells exposed 24 h, AI-2 in supernatant read by V. harveyi MM32 bioluminescence
Protocol: LuxS (MF688636) and MTAN (MF688635) transgenes derived from E. coli were codon-optimized for stable expression in mammalian cells. For the generation of double stable HEK-293-derived cell line HEK-293AI2 transgenic for simultaneous constitutive PhEFIα-driven MTAN and PhCMV-driven LuxS-eYFP expression, 250,000 cells were first transfected with 2000 ng of pFS168 (PhEFIα-MTAN-pA) and selected in culture medium containing 20 μg/ml blasticidin (cat. no. ant-bl-1; InvivoGen, San Diego, CA, USA) for two weeks. […] After 17 days of selection in medium containing 200 μg/ml (w/v) zeocin (cat. no. ant-zn-1; Invivogen, San Diego, CA, USA) and 20 μg/ml blasticidin, resistant monoclonal cells (HEK-293sFS26cx) were obtained by limiting dilution cloning and screened for AI-2 activity in their supernatants. […] The cell line was regularly tested for the absence of mycoplasma.
20 μl of HEK-293AI2 cells (10^4 cells per well) were resuspended in 20 μl Dulbecco's modified Eagle's medium (DMEM; Thermo Fisher, Basel, Switzerland, low glucose, without phenol red, cat. no. 11880–028) supplemented with 4 mM L-glutamine (Thermo Fisher, Basel, Switzerland, cat. no. 25030-024), 30 μg/ml kanamycin and 1% FCS and seeded into a poly-L-lysine-coated Black Greiner clear-bottom 384-well plate (cat. no. 3845; Corning, New York, USA) using a Multidrop Combi Reagent Dispenser (cat. no. 5840300; Thermo Fisher, Basel, Switzerland). Cells were incubated for 20 h and then 20 nL of individual compounds (stock solution in 5 mM in DMSO) or controls (stock solutions of novobiocin, 10 mM in DMSO; staurosporin, 20 mM in DMSO) were transferred with Echo 550 liquid handler (Labcyte, San Jose, CA, USA) into the plate.
Compound-treated cells were cultivated for 24 hours and the cell culture supernatants (10 μl) were transferred to dry black polystyrene 384-well plates (Corning, New York, USA, cat. no. 3571). The AI-2 activity was quantified by adding 40 μl per 384-well of V. harveyi MM32 AI-2 reporter strain, diluted 1:500 in AB-Medium from a stationary overnight culture grown in Luria Marine (LM)-medium containing 20 g of NaCl, 10 g of Bacto Tryptone (Difco Laboratories), and 5 g of yeast extract (BBL) ([25]). Plates were sealed with BREATHseal™ (cat. no. 7.676 050; Greiner Bio-One, Frickenhausen, Germany) and incubated for 4 h at 30°C and 200 rpm on a Multitron Pro shaker (Infors, Bottmingen, Switzerland). Bioluminescence was measured on an Envision 2104 Multilabel plate reader (Perkin Elmer, Waltham, USA) with 1 s integration time. […] The initial hit inclusion criteria were a toxicity score of less than 50% and an AI-2 activity reduction below the average of all compound activity three times the standard deviation (-49.39% of activity).
(§1) Figure 2. Cell-based primary screen for AI-2 biosynthesis inhibitors. (A) Detailed assay protocol of the primary screen using engineered mammalian cells to identify inhibitors of quorum sensing. […] Aliquots of 10 μl of culture supernatants were transferred to black-bottomed assay plates and mixed with 40 μl of V. harveyi MM32 (AI-2 biosensor). AI-2-induced bioluminescence was measured 4 h later and normalized against the controls. In a secondary screen, the dose-response relationships of hit compounds are analyzed. To simultaneously assess effects on cell viability, compound-treated cells were supplemented with PrestoBlue and incubated for 1 h prior to resorufin fluorescence quantification. (B) Z’-evaluation of the AI-2 inhibitor assay.

HEK-293AI2 cells = format: cell-based, human
Protocol: To monitor viable cells with active metabolism, we employed a fast resazurin assay. […] To calculate the relative cell viability, the fluorescence of DMSO-treated cells was set to 100%.
as §1, with “assay. […] Bioactivity and viability are calculated as percentages, based on the positive control value (taken as 100%) and negative control value (taken as 0%). […] Data points in (C) represent means of biological duplicates.” for “assay.”

Row | Compound | IC50 [1] | IC50 ([1]; Homo sapiens, 24 h) | other results
1 | O=CN(O)C[C@@H](CC1CCCC1)C(=O)N1C[C@H](F)C[C@H]1C(=O)Nc1cccnn1 [SCHEMBL12230409] | 640 nM | – | –
2 | CO/N=C(\C(=O)N[C@@H]1C(=O)N2C(C(=O)O)=C(CSc3nc(=O)c(=O)[nH]n3C)CS[C@H]12)c1csc(N)n1 [Ceftriaxone] | – | 3490 nM | Viability of Ctrl (%) (HEK-293AI2 cells; human, 5 µM): –4.78%
3 | Erythromycin | 1930 nM | – | –
4 | CO[C@H]1/C=C/O[C@@]2(C)Oc3c(C)c(O)c4c(O)c(c(/C=N/N5CCN(C6CCCC6)CC5)c(O)c4c3C2=O)NC(=O)/C(C)=C\C=C\[C@H](C)[C@H](O)[C@@H](C)[C@@H](O)[C@@H](C)[C@H](OC(C)=O)[C@@H]1C [Rifapentine] | – | 2530 nM | Viability of Ctrl (%) (HEK-293AI2 cells; human, 5 µM): –0.98%
5 | COc1cc(C)c(Cc2cnc(N)nc2N)cc1OC [Ormetoprim] | – | 3660 nM | –
6 | CC[C@H]1OC(=O)[C@H](C)[C@@H](O[C@H]2C[C@@](C)(OC)[C@@H](O)[C@H](C)O2)[C@H](C)[C@@H](O[C@@H]2O[C@H](C)C[C@H](N(C)C)[C@H]2O)[C@](C)(O)C[C@@H](C)C(=O)[C@H](C)[C@@H](O)[C@]1(C)O.O=C(O)[C@H](O)[C@H](O)[C@@H](O)[C@H](O)[C@H](O)CO [Erythrohycin Gluceptate] | 1310 nM | – | –
7 | CC[C@H]1OC(=O)[C@H](C)[C@@H](O[C@H]2C[C@@](C)(OC)[C@@H](O)[C@H](C)O2)[C@H](C)[C@@H](O[C@@H]2O[C@H](C)C[C@H](N(C)C)[C@H]2O)[C@](C)(O)C[C@@H](C)C(=O)[C@H](C)[C@@H](O)[C@H]1C [Erythromycin B] | 1420 nM | – | Viability of Ctrl (%) (HEK-293AI2 cells): 4.99%
8 | CC1NC(=O)C(NC(=O)c2cnc3ccccc3n2)COC(=O)C(C(C)C)N(C)C(=O)C2CSSCC(C(=O)N(C)C(C(C)C)C(=O)OCC(NC(=O)c3cnc4ccccc4n3)C(=O)NC(C)C(=O)N2C)N(C)C1=O (centres unmarked) [Triostin A] (I: Quinoxaline2carbonyl-SA[NMeC][NMeV] / II: Quinoxaline2carbonyl-SA[NMeC][NMeV]; ester I:1-II:C, I:C-II:1; disulfide I:3-II:3; configuration not given here) | 2140 nM | – | –
9 | NC(=O)c1ncn([C@@H]2O[C@H](CO)[C@@H](O)[C@H]2O)n1 [Ribavirin] | – | 190 nM | –
10 | O=CN(O)C[C@@H](CC1CCC1)C(=O)N1C[C@H](F)C[C@H]1C(=O)Nc1cccnn1 [SCHEMBL12230407] | 630 nM | – | –
11 | CCCCC[C@H](CC(=O)NO)C(=O)N[C@H](C(=O)N1CCC[C@H]1CO)C(C)C [Actinonin] | – | 1000 nM | Viability of Ctrl (%) (HEK-293AI2 cells; human, 5 µM): –11.93%
12 | C/C=C\C=C\[C@@H]1O[C@](O)([C@H](CC)C(=O)NC/C=C/C=C(\C)[C@@H](OC)[C@H](C)[C@@H]2O[C@H](/C=C/C=C/C=C(\C)C(=O)c3c(O)cc[nH]c3=O)[C@H](O)[C@@H]2O)[C@H](O)[C@H](O)C1(C)C [Mocimycin] | 1370 nM | – | –
13 | CCCC[C@H](CN(O)C=O)C(=O)N1CCC[C@H]1C(=O)Nc1cc(CC)ccn1 [SCHEMBL14510040] | 1090 nM | – | –
14 | Levomycin | 370 nM | – | –
15 | C[C@@H]1C/C=C2\SC[C@@H](NC(=O)c3coc(n3)C[C@H](O)C[C@H](O)/C=C/C=C/CNC2=O)C(=O)O1 [Griseoviridin] | 4550 nM | – | –
16 | CNC1=NC(=O)[C@H]([C@@H](C)c2c[nH]c3ccccc23)O1 [CHEMBL283366] | 180 nM | – | –
17 | CC(=O)NC[C@H]1CN(c2ccc(N3CCOCC3)c(F)c2)C(=O)O1 [Linezolid] | – | 4160 nM | Viability of Ctrl (%) (HEK-293AI2 cells; human, 5 µM): 0.38%
18 | CO[C@@H]1[C@@H](OC(N)=O)[C@@H](O)[C@H](Oc2ccc3c(O)c(NC(=O)c4ccc(O)c(CC=C(C)C)c4)c(=O)oc3c2C)OC1(C)C [novobiocin] | – | – | Bioluminescence of V. harveyi (MM32) ([1]; assay validation, active control novobiocin 10 μM): completely shut down the bioluminescence
19 | CO[C@H]1/C=C/O[C@@]2(C)Oc3c(C)c(O)c4c(c3C2=O)C2=NC3(CCN(CC(C)C)CC3)NC2=C(NC(=O)/C(C)=C\C=C\[C@H](C)[C@H](O)[C@@H](C)[C@@H](O)[C@@H](C)[C@H](OC(C)=O)[C@@H]1C)C4=O [Rifabutin] | – | 2190 nM | Viability of Ctrl (%) (HEK-293AI2 cells; human, 5 µM): –5.07%
20 | O=CN(O)C[C@@H](CC1CCCC1)C(=O)N1C[C@H](F)C[C@H]1C(=O)Nc1cnccn1 [SCHEMBL12230405] | 150 nM | – | –
